# In patent US7807678B2, “Peptidomimetics of biologically active metallopeptides” (Palatin Technologies, Inc., priority 2001, dated 2010):
# Legend:
# [1] = biological target: MC5-R (Homo sapiens, UniProt P33032); assay: Competitive inhibition binding assay, 125I-NDP-α-MSH, MC5-R; parameters: expressed in transfected cells; conditions: for Inhibition at 1 μM MC5-R: 1 μM compound, inhibition of 125I-NDP-α-MSH binding, mean of triplicates, results less than 0% reported as 0%
# Protocol: (§1) The competitive inhibition binding assay was conducted using membranes prepared from hMC3-R, hMC4-R, hMC5-R, and B-16 mouse melanoma cells (containing MC1-R) using 0.4 nM ^125I-NDP-α-MSH (New England Nuclear, Boston, Mass., USA) in 50 mM HEPES buffer containing 1 mM MgCl2, 2 mM CaCl2, and 5 mM KCl, at pH 7.2. The assay tube also contained a chosen concentration of the test peptidomimetic of this invention, generally 1 μM, for determining its efficacy in inhibiting the binding of ^125I-NDP-α-MSH to its receptor.
# (§2) Incubation was for 90 minutes at room temperature, after which the assay mixture was filtered and the membranes washed three times with ice cold buffer. The filter was dried and counted in a gamma counter for remaining radioactivity bound to the membranes. 100% specific binding was defined as the difference in radioactivity (cpm) bound to cell membranes in the absence and presence of 1 μM α-MSH. […] Each assay was conducted in triplicate and the actual mean values are described.
# [2] = biological target: MC4-R (Homo sapiens, UniProt P32245); assay: Competitive inhibition binding assay, 125I-NDP-α-MSH, MC4-R; parameters: expressed in transfected cells; conditions: for Inhibition at 1 μM MC4-R: 1 μM compound, inhibition of 125I-NDP-α-MSH binding, mean of triplicates, results less than 0% reported as 0%
# Protocol: as §1, §2
# [3] = biological target: T1, MC1-R (B-16 mouse melanoma cells) (Mus musculus, UniProt Q01727); assay: Competitive inhibition binding assay, 125I-NDP-α-MSH, MC1-R; conditions: for Inhibition at 1 μM MC1-R: 1 μM compound, inhibition of 125I-NDP-α-MSH binding, mean of triplicates, results less than 0% reported as 0%
# T1 construct: B-16 mouse melanoma cells (containing MC1-R); endogenous in cells; host or cells: B-16 mouse melanoma cells
# Protocol: as §1, §2
# [4] = biological target: MC3-R (Homo sapiens, UniProt P41968); assay: Competitive inhibition binding assay, 125I-NDP-α-MSH, MC3-R; parameters: expressed in transfected cells; conditions: for Inhibition at 1 μM MC3-R: 1 μM compound, inhibition of 125I-NDP-α-MSH binding, mean of triplicates, results less than 0% reported as 0%
# Protocol: as §1, §2
# T1 sequence (Q01727 whole entry): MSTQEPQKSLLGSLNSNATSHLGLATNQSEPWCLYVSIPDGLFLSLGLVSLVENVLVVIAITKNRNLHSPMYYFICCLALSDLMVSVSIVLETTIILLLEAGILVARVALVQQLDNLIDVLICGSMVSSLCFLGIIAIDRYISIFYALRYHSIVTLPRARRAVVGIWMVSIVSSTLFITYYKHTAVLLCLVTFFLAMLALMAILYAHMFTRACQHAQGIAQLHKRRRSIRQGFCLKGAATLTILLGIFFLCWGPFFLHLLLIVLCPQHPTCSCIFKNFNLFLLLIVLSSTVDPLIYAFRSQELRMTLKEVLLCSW
# Sequence of MC3-R (P41968 whole entry): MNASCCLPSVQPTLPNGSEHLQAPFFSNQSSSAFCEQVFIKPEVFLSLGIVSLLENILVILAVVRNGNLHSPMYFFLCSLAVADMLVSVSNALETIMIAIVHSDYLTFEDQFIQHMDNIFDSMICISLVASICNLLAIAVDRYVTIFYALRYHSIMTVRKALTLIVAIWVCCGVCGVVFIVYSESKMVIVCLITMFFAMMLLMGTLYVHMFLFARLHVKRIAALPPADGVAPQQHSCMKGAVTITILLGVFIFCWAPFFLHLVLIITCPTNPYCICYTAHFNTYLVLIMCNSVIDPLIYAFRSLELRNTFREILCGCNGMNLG
# Sequence of MC4-R (P32245 whole entry): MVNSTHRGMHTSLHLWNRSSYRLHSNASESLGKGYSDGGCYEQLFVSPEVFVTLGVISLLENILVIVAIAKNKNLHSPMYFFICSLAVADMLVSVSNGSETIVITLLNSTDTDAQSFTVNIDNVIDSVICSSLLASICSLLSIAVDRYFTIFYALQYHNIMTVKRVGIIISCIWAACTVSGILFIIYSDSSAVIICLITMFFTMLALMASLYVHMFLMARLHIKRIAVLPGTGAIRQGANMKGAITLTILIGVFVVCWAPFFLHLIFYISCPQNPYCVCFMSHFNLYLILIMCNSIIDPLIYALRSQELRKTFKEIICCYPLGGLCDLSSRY
# Sequence of MC5-R (P33032 whole entry): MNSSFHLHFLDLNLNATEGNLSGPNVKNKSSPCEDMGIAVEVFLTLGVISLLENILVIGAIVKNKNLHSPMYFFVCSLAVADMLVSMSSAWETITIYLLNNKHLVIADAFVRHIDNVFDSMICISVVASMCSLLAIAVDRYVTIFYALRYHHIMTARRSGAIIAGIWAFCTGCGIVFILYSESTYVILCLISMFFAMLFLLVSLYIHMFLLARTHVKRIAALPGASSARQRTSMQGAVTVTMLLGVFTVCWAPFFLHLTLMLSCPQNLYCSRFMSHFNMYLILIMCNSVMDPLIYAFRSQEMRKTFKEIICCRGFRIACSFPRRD
Inhibition at 1 μM MC5-R [1],Inhibition at 1 μM MC4-R [2],Inhibition at 1 μM MC1-R [3],Inhibition at 1 μM MC3-R [4],inhibition at 1 µM [1],inhibition at 1 µM [2],inhibition at 1 µM [3],inhibition at 1 µM [4],Compound
30%,72%,26%,14%,,,,,NCCCC[C@H]1C(=O)N(CCc2ccc3ccccc3c2)CCN1C(=O)[C@H](N)Cc1ccc2ccccc2c1 [Example 59]
13%,23%,4%,6%,,,,,N[C@H](Cc1ccc(Cl)cc1Cl)C(=O)N1CCN(CCc2ccc3ccccc3c2)C(=O)[C@@H]1CCCCNC(=O)c1cccnc1 [Example 60]
26%,12%,3%,6%,,,,,N[C@H](Cc1ccc(Cl)cc1Cl)C(=O)N1CCN(CCc2ccc3ccccc3c2)C(=O)[C@@H]1CCCCNC(=O)c1ccc(O)cc1 [Example 61]
2%,6%,0%,4%,,,,,N[C@H](Cc1ccc(Cl)cc1Cl)C(=O)N1CCN(CCc2ccc3ccccc3c2)C(=O)[C@@H]1CCCCNC(=O)CC1CCCCC1 [Example 62]
6%,30%,8%,0%,,,,,N[C@H](Cc1ccc(Cl)cc1Cl)C(=O)N1CCN(CCc2ccc3ccccc3c2)C(=O)[C@@H]1CCCCNC=O [Example 64]
0%,26%,17%,3%,,,,,CC(=O)NCCCC[C@H]1C(=O)N(CCc2ccc3ccccc3c2)CCN1C(=O)[C@H](N)Cc1ccc(Cl)cc1Cl [Example 65]
14%,49%,43%,15%,,,,,NC(=O)NCCCC[C@H]1C(=O)N(CCc2ccc3ccccc3c2)CCN1C(=O)[C@H](N)Cc1ccc(Cl)cc1Cl [Example 66]
42%,96%,66%,68%,,,,,N=C(N)NCCCC[C@H]1C(=O)N(CCc2ccc3ccccc3c2)CCN1C(=O)[C@H](N)Cc1ccc(Cl)cc1Cl [Example 67]
19%,12%,3%,9%,,,,,N[C@H](Cc1ccc(Cl)cc1Cl)C(=O)N1CCN(CCc2ccc3ccccc3c2)C(=O)[C@@H]1CCCNc1ncccn1 [Example 68]
12%,3%,20%,8%,,,,,N[C@H](Cc1ccc(Cl)cc1Cl)C(=O)N1CCN(CCc2ccc3ccccc3c2)C(=O)[C@@H]1CCCNc1cc[nH]n1 [Example 69]
32%,70%,28%,31%,,,,,N[C@H](Cc1ccc(Cl)cc1Cl)C(=O)N1CCN(CCc2ccc3ccccc3c2)C(=O)[C@@H]1CCCNc1nncs1 [Example 70]
57%,97%,60%,73%,,,,,N=C(N)NCCCC[C@H]1C(=O)N(CCc2ccc3ccccc3c2)CCN1C(=O)[C@H](N)Cc1ccc2ccccc2c1 [Example 71]
27%,93%,19%,43%,,,,,CNC(=N)NCCC[C@H]1C(=O)N(CCc2ccc3ccccc3c2)CCN1C(=O)[C@H](N)Cc1ccc(Cl)cc1Cl [Example 72]
24%,91%,14%,35%,,,,,CCNC(=N)NCCC[C@H]1C(=O)N(CCc2ccc3ccccc3c2)CCN1C(=O)[C@H](N)Cc1ccc(Cl)cc1Cl [Example 73]
26%,88%,13%,34%,,,,,CCCNC(=N)NCCCC1C(=O)N(CCc2ccc3ccccc3c2)CCN1C(=O)C(N)Cc1ccc(Cl)cc1Cl (centres unmarked) [Example 74]
28%,85%,37%,40%,,,,,CC(C)NC(=N)NCCCC1C(=O)N(CCc2ccc3ccccc3c2)CCN1C(=O)C(N)Cc1ccc(Cl)cc1Cl (centres unmarked) [Example 75]
,,,,20%,24%,15%,0%,N=C(N)NCCC[C@H]1C(=O)N(CCc2ccc3ccccc3c2)CCN1C(=O)COc1ccc(Cl)cc1Cl [Example 77]
99%,99%,96%,72%,,,,,CCCCCCC(=O)N[C@@H](COCc1ccccc1)C(=O)N[C@H](Cc1ccc(Cl)cc1)C(=O)N1CCN(CCc2c[nH]c3ccccc23)C(=O)[C@@H]1CCCCN [Example 78]
86%,81%,90%,14%,,,,,NCCCC[C@H]1C(=O)N2C(CC[C@@H]2COc2ccc3ccccc3c2)N1C(=O)[C@@H](Cc1ccc(Cl)cc1)NC(=O)[C@@H](N)COCc1ccccc1 (some centres unmarked) [Example 79]
38%,60%,28%,0%,,,,,NCCCC[C@H]1C(=O)N2C(CC[C@@H]2COc2ccc3ccccc3c2)N1C(=O)[C@@H](Cc1ccccc1Cl)NC(=O)[C@@H](N)COCc1ccccc1 (some centres unmarked) [Example 82]
38%,89%,42%,2%,,,,,NCCCC[C@H]1C(=O)N2C(CC[C@@H]2COc2ccc3ccccc3c2)N1C(=O)[C@@H](Cc1ccccc1Cl)NC(=O)[C@@H]1Cc2ccccc2CN1 (some centres unmarked) [Example 83]
37%,74%,44%,0%,,,,,NCCCC[C@H]1C(=O)N2C(CC[C@@H]2COc2ccc3ccccc3c2)N1C(=O)[C@@H](Cc1ccccc1Cl)NC(=O)[C@@H]1C[C@@H](OCc2ccccc2)CN1 (some centres unmarked) [Example 84]
13%,44%,4%,0%,,,,,NCCCC[C@H]1C(=O)N2C(CC[C@@H]2COc2ccc3ccccc3c2)N1C(=O)[C@@H](Cc1ccccc1Cl)NC(=O)[C@@H]1CC[C@H](c2ccccc2)N1 (some centres unmarked) [Example 85]
47%,82%,71%,30%,,,,,CCCCCCC(=O)N[C@@H](COCc1ccccc1)C(=O)N[C@H](Cc1ccccc1Cl)C(=O)N1C2CC[C@H](COc3ccc4ccccc4c3)N2C(=O)[C@@H]1CCCCN (some centres unmarked) [Example 86]
46%,57%,66%,8%,,,,,NCCCC[C@H]1C(=O)N2C(CC[C@@H]2COc2ccc3ccccc3c2)N1C(=O)[C@@H](Cc1ccccc1Cl)NC(=O)[C@H]1NCCc2ccccc21 (some centres unmarked) [Example 87]
20%,37%,48%,0%,,,,,NCCCC[C@H]1C(=O)N2C(CC[C@@H]2COc2ccc3ccccc3c2)N1C(=O)[C@@H](Cc1ccccc1Cl)NC(=O)[C@@H]1NCCc2ccccc21 (some centres unmarked) [Example 88]
